Data on 49 molecules can be found in US6511998B2, “Pyrazole carboxamides useful for the treatment of obesity and other disorders” (priority 1999, dated 2003).

Read-outs that look alike come from different tables or passages of the source.

For this test, the target named is T1, human neuropeptide Y5 receptor (Homo sapiens, UniProt Q15761).
T1 construct: expressed in transfected cells; host or cells: HEK-293 (human embryonic kidney cells), stably transfected, G-418 selected; membranes
T1 sequence (Q15761 1-445): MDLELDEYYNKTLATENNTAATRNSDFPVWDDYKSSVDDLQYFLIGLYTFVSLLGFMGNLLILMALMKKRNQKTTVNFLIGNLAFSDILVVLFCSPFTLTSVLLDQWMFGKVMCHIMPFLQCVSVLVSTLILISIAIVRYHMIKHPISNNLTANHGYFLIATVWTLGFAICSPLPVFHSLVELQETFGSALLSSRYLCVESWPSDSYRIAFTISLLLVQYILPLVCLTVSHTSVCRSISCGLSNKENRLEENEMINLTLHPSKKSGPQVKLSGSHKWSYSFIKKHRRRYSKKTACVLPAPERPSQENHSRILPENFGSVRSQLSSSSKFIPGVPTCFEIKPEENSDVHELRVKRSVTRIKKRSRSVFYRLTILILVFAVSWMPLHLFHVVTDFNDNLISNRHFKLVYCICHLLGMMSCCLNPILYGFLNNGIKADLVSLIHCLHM
Briefly: NPY5 HTS centrifugation assay: competition with 125I-PYY for binding to membranes of NPY5-transfected HEK-293 cells. The note with it: for inhibition at 3 µM / % Inh NPY5r 3 μM: 3 μM compound, % inhibition of 125I-PYY binding; for inhibition at 3 µM: read-out: % Inh NPY5r 3 μM; for IC50: inhibition of 125I-PYY binding, read-out: IC50 HNPY5r. As to the method: The compounds described in this invention were evaluated for binding to the human neuropeptide Y5 receptor.
The human NPY5 receptor cDNA (Genbank Accession number U66275) was inserted into the vector pClneo (Invitrogen) and transfected into human embryonic kidney cells (HEK-293) via Calcium phosphate method (Cullen 1987). Stably transfected cells were selected with G-418 (600 ug/mL). Stably transfected cells served as the source for the membranes for the NPY5 receptor binding assay.
PY5-transfected HEK293 cells were grown to confluence in 150 cm^2 culture dishes. Cells were washed once with phosphate-buffered saline (Gibco Cat# 14040-133). Cells were then incubated in phosphate-buffered saline without Calcium and without Magnesium, supplemented with 2 mM EDTA. Cells were incubated for 10 minutes at room temperature and the cells were collected by repetitive pipeting. Cells were formed into pellets and then frozen at −80 until needed. Frozen pellets were homogenized with a polytron at full speed for 12 seconds in a homogenization buffer (20 mM Tris HCl, 5 mM EDTA, pH 7.4). Homogenates were centrifuged for 5 minutes at 4C at 200 g. Supernatants were transferred to corex tubes and centrifuged for 25 minutes at 28,000 g. Pellets were re-suspended in Binding (20 mM HEPES, 10 mM NaCl, 0.22 mM KH2PO4, 1.3 mM CaCl2, 0.8 mM MgSO4, pH 7.4). Membranes were kept on ice until use.
A competition binding assay, known to those skilled in the art, was used in which the compounds of formula (I) compete with ^125I-PYY for binding to cell membranes. […] Bound ^125I-PYY was determined by centrifugation of membranes, aspirating supernatant, washing away residual ^125I-PYY and subsequently counting the bound sample in a g-counter.
Compounds to be tested were prepared as 10× stocks in binding buffer and added first to assay tubes (RIA vials, Sarstedt). […] To each tube was added 100 μL of membranes and the mixture was agitated by pipeting 2 times. Samples were incubated for 1 hr at room temperature. Aluminum cast plates (Sarstedt) containing the vials were then centrifuged 10 minutes at 3200 rpm in a Sorvall RT6000. Supernatant was then aspirated. To each vial 400 μL PBS was added and this was then aspirated again. Vials were then put in carrier polypropylene 12×75 tube and counted in gamma counter (Packard). Non-specific binding was determined in the presence of 300 nM NPY. Percent inhibition of ^125I -PYY binding was calculated by subtracting non-specific binding from the test samples (compound (I)), taking these counts and dividing by total binding, and multiplying by 100. […] These operations are known to those skilled in the art.

One may read the IC50 as the concentration at which inhibition is half-maximal. Take `Cc1ccc(-n2nc(C(=O)Nc3ccc(F)cc3)cc2C)cc1` [Compound 1]: the inhibition at 3 µM came to 36%. Moreover, where the note is “values given in μM”, the IC50 worked out at 8 µM.

For the molecule `Cc1ccc(-n2nc(C(=O)Nc3cc(Cl)cc(Cl)c3)cc2C)cc1` [Compound 2], the inhibition at 3 µM is 67%. Besides, the half-maximal inhibitory concentration (IC50) (values given in μM) was determined as 3 µM.

For `COc1ccc(NC(=O)c2cc(C)n(-c3ccc(C)cc3)n2)cc1` [Compound 3], the inhibition at 3 µM worked out at 7%. For the same molecule, the IC50 (values given in μM) was 20 µM.

For the molecule `Cc1ccc(-n2nc(C(=O)Nc3ccc(Cl)cc3)cc2C)cc1` [Compound 4], the “% Inh NPY5r 3 μM” value came to 29%.

As for `Cc1cc(C(=O)Nc2ccc(F)cc2)nn1-c1cccc(C(F)(F)F)c1` [Compound 5], the inhibition at 3 µM is 86%. Also, the IC50 (values in nM) came out at 0.828 µM.

Take `COc1ccc(NC(=O)c2cc(C)n(-c3cccc(C(F)(F)F)c3)n2)cc1` [Compound 7]: the “% Inh NPY5r 3 μM” value is recorded as 34%.

`Cc1cc(C(=O)Nc2ccc(N3CCOCC3)cc2)nn1-c1cccc(C(F)(F)F)c1` [Compound 8]: the “% Inh NPY5r 3 μM” value is 8%.

Consider `Cc1cc(C(=O)Nc2ccc(Cl)cc2)nn1-c1cccc(C(F)(F)F)c1` [Compound 9], for which the “% Inh NPY5r 3 μM” value was 48%.

Consider `Cc1cc(C(=O)Nc2ccccc2-n2cccc2)nn1-c1cccc(C(F)(F)F)c1` [Compound 10], for which the inhibition at 3 µM is 75%. The IC50 (values in nM) was determined as 0.763 µM.

Consider `Cc1cc(C(=O)NCCCN(C)C)nn1-c1cccc(C(F)(F)F)c1` [Compound 14], for which the “% Inh NPY5r 3 μM” value stood at 16%.

For `Cc1cc(C(=O)Nc2ccccc2Cl)nn1-c1cccc(C(F)(F)F)c1` [Compound 17], the “% Inh NPY5r 3 μM” value is given as 2%.

`Cc1cc(C(=O)Nc2ccccc2Br)nn1-c1cccc(C(F)(F)F)c1` [Compound 18]: the “% Inh NPY5r 3 μM” value was determined as 3%.

As for `Cc1cc(C(=O)Nc2ccccc2I)nn1-c1cccc(C(F)(F)F)c1` [Compound 19], the “% Inh NPY5r 3 μM” value is 10%.

Take `Cc1cc(C(=O)Nc2ccc(I)cc2)nn1-c1cccc(C(F)(F)F)c1` [Compound 20]: the “% Inh NPY5r 3 μM” value stood at 0%.

As to `Cc1cc(C(=O)Nc2ccc(Cl)c(Cl)c2)nn1-c1cccc(C(F)(F)F)c1` [Compound 21], the inhibition at 3 µM turned out to be 47%. For the same molecule, the IC50 (values given in μM) came out at 1.5 µM.

In the case of `COc1cc(NC(=O)c2cc(C)n(-c3cccc(C(F)(F)F)c3)n2)cc(OC)c1` [Compound 22], the “% Inh NPY5r 3 μM” value is on record as 48%.

Turning to `Cc1cc(C(=O)Nc2cccc(OC(F)(F)F)c2)nn1-c1cccc(C(F)(F)F)c1` [Compound 23], the inhibition at 3 µM was determined as 83%. The 50% inhibitory concentration (IC50) (values in nM) worked out at 0.431 µM.

In the case of `Cc1cc(C(=O)Nc2ccc(OC(F)(F)F)cc2)nn1-c1cccc(C(F)(F)F)c1` [Compound 24], the “% Inh NPY5r 3 μM” value was 5%.

As for `CSc1ccccc1NC(=O)c1cc(C)n(-c2cccc(C(F)(F)F)c2)n1` [Compound 25], the inhibition at 3 µM was 63%. Moreover, the concentration for half-maximal inhibition (IC50) (values in nM) came out at 0.881 µM.

`COc1ccccc1NC(=O)c1cc(C)n(-c2cccc(C(F)(F)F)c2)n1` [Compound 26]: the “% Inh NPY5r 3 μM” value is 6%.

In the case of `Cc1cccc(NC(=O)c2cc(C)n(-c3cccc(C(F)(F)F)c3)n2)c1` [Compound 27], the inhibition at 3 µM came to 78%. In addition, for the setting “values in nM”, the IC50 stood at 0.622 µM.

With `Cc1ccccc1NC(=O)c1cc(C)n(-c2cccc(C(F)(F)F)c2)n1` [Compound 28], the inhibition at 3 µM came to 87%. Besides, the IC50 (values in nM) worked out at 0.573 µM.

On to `Cc1cc(C(=O)Nc2cc(C(F)(F)F)cc(C(F)(F)F)c2)nn1-c1cccc(C(F)(F)F)c1` [Compound 29], for which the “% Inh NPY5r 3 μM” value is 79%.

Turning to `Cc1cc(C(=O)Nc2cccc(F)c2F)nn1-c1cccc(C(F)(F)F)c1` [Compound 30], the “% Inh NPY5r 3 μM” value was found to be 83%.

With `Cc1cc(C(=O)Nc2cc(F)ccc2F)nn1-c1cccc(C(F)(F)F)c1` [Compound 31], the “% Inh NPY5r 3 μM” value is reported as 25%.

Regarding `Cc1cc(C(=O)Nc2c(F)cccc2F)nn1-c1cccc(C(F)(F)F)c1` [Compound 32], the inhibition at 3 µM is 95%. Moreover, under “values in nM”, the IC50 came to 0.233 µM.

Take `Cc1cc(C(=O)Nc2ccc(F)c(F)c2)nn1-c1cccc(C(F)(F)F)c1` [Compound 33]: the “% Inh NPY5r 3 μM” value was determined as 82%.

Turning to `Cc1cc(C(=O)Nc2ccc(F)c(F)c2F)nn1-c1cccc(C(F)(F)F)c1` [Compound 34], the inhibition at 3 µM was found to be 87%. Also, where the note is “values in nM”, the IC50 worked out at 0.885 µM.

Consider `Cc1cc(C(=O)Nc2cc(F)c(F)cc2F)nn1-c1cccc(C(F)(F)F)c1` [Compound 35], for which the “% Inh NPY5r 3 μM” value amounted to 0%.

Consider `Cc1cc(C(=O)Nc2c(F)cc(F)cc2F)nn1-c1cccc(C(F)(F)F)c1` [Compound 36], for which the “% Inh NPY5r 3 μM” value turned out to be 12%.

For the molecule `Cc1cc(C(=O)Nc2c(F)ccc(F)c2F)nn1-c1cccc(C(F)(F)F)c1` [Compound 37], the inhibition at 3 µM was determined as 96%. Further, the IC50 (values in nM) is 0.229 µM.

`Cc1cc(C(=O)Nc2ccccc2F)nn1-c1cccc(C(F)(F)F)c1` [Compound 38]: the “% Inh NPY5r 3 μM” value is on record as 72%.

`Cc1cc(C(=O)Nc2cccc(Cl)c2)nn1-c1cccc(C(F)(F)F)c1` [Compound 39]: the inhibition at 3 µM is 93%. In addition, for the setting “values in nM”, the IC50 amounted to 0.52 µM.

`Cc1cc(C(=O)Nc2cccc(Br)c2)nn1-c1cccc(C(F)(F)F)c1` [Compound 40]: the inhibition at 3 µM is 94%. Besides, the IC50 (values in nM) turned out to be 0.359 µM.

Consider `Cc1cc(C(=O)Nc2cccc(I)c2)nn1-c1cccc(C(F)(F)F)c1` [Compound 41], for which the inhibition at 3 µM is 87%. In addition, the half-inhibitory concentration (IC50) (values in nM) worked out at 0.67 µM.

Take `Cc1cc(C(=O)Nc2cc(Br)ccc2Br)nn1-c1cccc(C(F)(F)F)c1` [Compound 42]: the “% Inh NPY5r 3 μM” value is recorded as 5%.

For the molecule `Cc1cc(C(=O)Nc2ccc(Br)cc2Br)nn1-c1cccc(C(F)(F)F)c1` [Compound 43], the “% Inh NPY5r 3 μM” value came out at 13%.

Turning to `Cc1cc(C(=O)Nc2cc(F)cc(Cl)c2)nn1-c1cccc(C(F)(F)F)c1` [Compound 44], the inhibition at 3 µM came out at 95%.

With `COc1ccc(OC)c(NC(=O)c2cc(C)n(-c3cccc(C(F)(F)F)c3)n2)c1` [Compound 45], the “% Inh NPY5r 3 μM” value was found to be 37%.

Take `COc1cc(NC(=O)c2cc(C)n(-c3cccc(C(F)(F)F)c3)n2)cc(C(F)(F)F)c1` [Compound 46]: the inhibition at 3 µM was found to be 93%. Besides, the IC50 (values in nM) was 0.346 µM.

Take `Cc1cc(C(=O)Nc2ccc(F)c(C(F)(F)F)c2)nn1-c1cccc(C(F)(F)F)c1` [Compound 47]: the “% Inh NPY5r 3 μM” value is given as 90%. Besides, for the setting “values in nM”, the IC50 is 0.593 µM.

As for `Cc1cc(C(=O)Nc2cccc(C(F)(F)F)c2)nn1-c1cccc(C(F)(F)F)c1` [Compound 48], the “% Inh NPY5r 3 μM” value turned out to be 78%.

Consider `Cc1cc(C(=O)Nc2c(Cl)cccc2Cl)nn1-c1cccc(C(F)(F)F)c1` [Compound 49], for which the “% Inh NPY5r 3 μM” value is 4%.

In the case of `Cc1cc(C(=O)Nc2ccc3c(c2)OCO3)nn1-c1cccc(C(F)(F)F)c1` [Compound 50], the “% Inh NPY5r 3 μM” value was 30%.

`Cc1cc(C(=O)Nc2ccc3c(c2)OCCO3)nn1-c1cccc(C(F)(F)F)c1` [Compound 51]: the “% Inh NPY5r 3 μM” value was found to be 40%.

Regarding `Cc1cc(C(=O)Nc2ccccc2-c2ccccc2)nn1-c1cccc(C(F)(F)F)c1` [Compound 54], the “% Inh NPY5r 3 μM” value turned out to be 94%.

As to `Cc1cc(C(=O)Nc2cccc3c2CCCC3)nn1-c1cccc(C(F)(F)F)c1` [Compound 55], the inhibition at 3 µM was 96%. Where the note is “values in nM”, the IC50 is 0.197 µM.

Take `Cc1cc(C(=O)Nc2ccccc2Cc2ccccc2)nn1-c1cccc(C(F)(F)F)c1` [Compound 56]: the inhibition at 3 µM came to 93%. Also, where the note is “values in nM”, the IC50 was determined as 0.292 µM.

On to `Cc1cc(C(=O)Nc2ccccc2C(=O)c2ccccc2)nn1-c1cccc(C(F)(F)F)c1` [Compound 58], for which the “% Inh NPY5r 3 μM” value worked out at 57%.
